Structures can show the parent of a compound that is named as a salt.
Legend:
Histamine H3 Receptor [1] = molecular target: T1, Histamine H3 Receptor (Rattus norvegicus, UniProt Q9QYN8); assay: Blockade of RAMH-induced drinking assay; type: in vivo; settings: male Sprague Dawley rats, 0.3 mg/kg PO, RAMH 3 mg/kg SC, reduction in water intake
Description: Blockade of RAMH-Induced Drinking Assay
When administered to rodents, histamine H3 receptor agonists such as (R)-α-methylhistamine (RAMH) induce a drinking response that is sensitive to reversal with a histamine H3 receptor antagonist. Blockade of RAMH-induced drinking can therefore be utilized as an in vivo assay for functional histamine H3 receptor antagonist activity. In this assay, male Sprague Dawley rats (250-350 g) were housed three per cage and maintained under a reverse 12 h light cycle (lights off at 1130 h). At 1030 h on the day of test, rats were individually housed in new cages and food was removed. 120 min later, rats were administered test article (vehicle or histamine H3 receptor antagonist, 0.3 mg/kg PO). 30 min later, water was removed, and RAMH (vehicle or RAMH 3 mg/kg salt SC) was administered. 10 min after administration of RAMH, weighed water bottles were placed in the cages, and drinking was allowed for 20 min. Water consumption was determined for each animal by weighing each bottle to the nearest 0.1 g. Data is expressed as percentage reduction in water intake according to the following formula:
[((VEH/RAMH)−(ANTAGONIST/RAMH))/((VEH/RAMH)−(VEH/VEH))]*100

Histamine H3 Receptor [2] = molecular target: T1, Histamine H3 Receptor; assay: [3H] N-alpha-methyl-histamine competitive histamine H3 receptor binding assay; set-up: A crude membrane fraction was prepared from whole rat brain cortex; from tissue; host or cells: whole rat brain cortex, crude membrane fraction; settings: whole rat brain cortex membranes, [3H]-N-α-methylhistamine 1 nM
Description: [^3H] N-Alpha-Methyl-Histamine Competitive Histamine H3 Receptor Binding Assay
The histamine receptor binding assay was conducted using standard laboratory procedures as described below. A crude membrane fraction was prepared from whole rat brain cortex using a polytron to homogenize the tissue followed by differential centrifugation in a HEPES-based buffer containing protease inhibitors. Membranes where frozen at −80° C. until needed. Frozen membranes were thawed and resuspended in ice-cold assay buffer consisting of 50 mM TRIS containing 5 mM EDTA (pH=7.4). 50 micrograms (μg) of membrane protein was added to each well of a 96-well assay plate along with test compound and [^3H]-N-α-methylhistamine (1 nanomolar (nM) final assay concentration). Imetit was used as an assay positive control at varying concentrations. The plate was incubated for 30 min at room temperature. The assay was terminated by rapid filtration through a 96-well glass fiber filtration plate (GF/C) using a cell harvester (Perkin-Elmer). Captured membranes were washed three times with cold assay buffer and plates were dried at 50° C. 35 microliters (μL) of scintillation cocktail was added to each well and membrane-bound radioactivity was recorded using a TopCount 96-well plate scintillation counter (Perkin-Elmer).

[3] = molecular target: T2, human histamine H3 receptor (Homo sapiens, UniProt Q9Y5N1); assay: Human histamine H3 receptor binding assay, MDS Pharma Services (Taiwan), Catalogue No. 239810
T2 construct: purchased MDS Pharma Services (Taiwan) 239810
T2 sequence (Q9Y5N1 whole entry): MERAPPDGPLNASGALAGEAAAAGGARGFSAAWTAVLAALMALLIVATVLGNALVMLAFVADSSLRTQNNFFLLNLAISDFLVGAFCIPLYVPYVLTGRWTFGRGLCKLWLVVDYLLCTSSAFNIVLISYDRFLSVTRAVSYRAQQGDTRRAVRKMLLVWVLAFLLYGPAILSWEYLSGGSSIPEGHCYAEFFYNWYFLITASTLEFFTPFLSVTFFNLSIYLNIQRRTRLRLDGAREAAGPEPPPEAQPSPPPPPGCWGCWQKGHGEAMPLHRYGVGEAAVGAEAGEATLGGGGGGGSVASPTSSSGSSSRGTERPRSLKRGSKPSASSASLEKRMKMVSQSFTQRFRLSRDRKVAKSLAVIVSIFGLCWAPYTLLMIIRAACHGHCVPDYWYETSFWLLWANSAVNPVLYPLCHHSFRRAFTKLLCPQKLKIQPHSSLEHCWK
Description: Human Histamine H3 Receptor Binding Assay—MDS Pharma Services (Taiwan)
Compounds of the invention were tested for their ability to bind to the human histamine H3 receptor using the MDS Pharma Services (Taiwan) assay, Catalogue No. 239810.

[4] = Dynamic vapor sorption (DVS) hygroscopicity; type: physicochemical; settings: 25° C.
Description: Dynamic Vapor Sorption (DVS)
Hygroscopicity was measured using a dynamic moisture-sorption analyzer, VTI Corporation, SGA-100. The sample was placed as-is in a tared sample holder on the VTI balance. A drying step was run at 40° C. and ˜1% RH for 120 minutes. The isotherm conditions are 25° C. with steps of 20% RH from 10% RH up to 90% RH and back to 10% RH. Weight is checked every 2 minutes. Percent weight change of <0.01% in 20 minutes or 2 hours, whichever occurs first, is required before continuing to the next step. The DVS profile for the crystalline form (Form 1) of (R)-2-hydroxy-1-(6-(4-(2-(2-methylpyrrolidin-1-yl)ethyl)phenyl)-3,4-dihydroisoquinolin-2(1H)-yl)ethanone hydrochloride is shown in FIG. 16.

T1 sequence (Q9QYN8 whole entry): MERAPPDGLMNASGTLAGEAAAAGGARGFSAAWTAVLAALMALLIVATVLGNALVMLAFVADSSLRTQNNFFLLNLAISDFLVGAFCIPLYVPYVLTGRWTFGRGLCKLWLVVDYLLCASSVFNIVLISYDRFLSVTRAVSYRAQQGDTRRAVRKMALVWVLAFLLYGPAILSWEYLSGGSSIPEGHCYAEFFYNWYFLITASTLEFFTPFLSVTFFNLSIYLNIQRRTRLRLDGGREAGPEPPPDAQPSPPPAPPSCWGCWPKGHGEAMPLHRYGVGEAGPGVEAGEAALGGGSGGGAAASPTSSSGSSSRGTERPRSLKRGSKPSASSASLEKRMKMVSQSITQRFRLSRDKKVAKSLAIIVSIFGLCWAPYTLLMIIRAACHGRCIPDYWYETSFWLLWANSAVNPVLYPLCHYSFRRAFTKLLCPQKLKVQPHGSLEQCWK

Compound | % inhibition of RAMH-induced drinking (Histamine H3 Receptor [1]) [%] | Ki (Histamine H3 Receptor [2]) [nM] | other results
COCCC(=O)N1CCc2ccc(-c3ccc(CCN4CCC[C@H]4C)cc3)cc2C1 [Compound 1, (R)-3-methoxy-1-(7-(4-(2-(2-methylpyrrolidin-1-yl)ethyl)phenyl)-3,4-dihydroisoquinolin-2(1H)-yl)propan-1-one] | 81.6 | – | –
C[C@@H]1CCCN1CCc1ccc(-c2ccc3c(c2)CCN(C(=O)C2CC2)C3)cc1 [Compound 3, (R)-cyclopropyl(6-(4-(2-(2-methylpyrrolidin-1-yl)ethyl)phenyl)-3,4-dihydroisoquinolin-2(1H)-yl)methanone] | – | 0.45 | –
C[C@@H]1CCCN1CCc1ccc(-c2ccc3c(c2)CN(C(=O)C2CC2)C3)cc1 [Compound 5, (R)-cyclopropyl(5-(4-(2-(2-methylpyrrolidin-1-yl)ethyl)phenyl)isoindolin-2-yl)methanone] | – | 0.11 | Ki [3]: 0.57 nM
COc1ccc(C(=O)N2CCc3cc(-c4ccc(CCN5CCC[C@H]5C)cc4)ccc3C2)cc1 [Compound 9, (R)-(4-methoxyphenyl)(6-(4-(2-(2-methylpyrrolidin-1-yl)ethyl)phenyl)-3,4-dihydroisoquinolin-2(1H)-yl)methanone] | – | 1.1 | –
C[C@@H]1CCCN1CCc1ccc(-c2ccc3c(c2)CCN(C(=O)CO)C3)cc1 [Compound 10 HCl Salt (Form 1), (R)-2-hydroxy-1-(6-(4-(2-(2-methylpyrrolidin-1-yl)ethyl)phenyl)-3,4-dihydroisoquinolin-2(1H)-yl)ethanone hydrochloride] | – | – | DVS absorption at 90% relative humidity ([4]; crystalline Form 1, hydrochloride): FIG. 16: absorption of less than 0.25%; DVS absorption at 90% relative humidity ([4]; crystalline Form 1, listed as Form 1 of the HCl salt of Compound 10, hydrochloride): about 0.25%
C[C@@H]1CCCN1CCc1ccc(-c2ccc3c(c2)CN(C(=O)C2CCOCC2)C3)cc1 [Compound 12, (R)-(5-(4-(2-(2-methylpyrrolidin-1-yl)ethyl)phenyl)isoindolin-2-yl)(tetrahydro-2H-pyran-4-yl)methanone] | – | 0.09 | –
C[C@@H]1CCCN1CCc1ccc(-c2ccc3c(c2)CCN(C(=O)c2ccncc2)C3)cc1 [Compound 14, (R)-(6-(4-(2-(2-methylpyrrolidin-1-yl)ethyl)phenyl)-3,4-dihydroisoquinolin-2(1H)-yl)(pyridin-4-yl)methanone] | 40.7 | – | –
C[C@@H]1CCCN1CCc1ccc(-c2ccc3c(c2)CCN(C(=O)CCO)C3)cc1 [Compound 16, (R)-3-hydroxy-1-(6-(4-(2-(2-methylpyrrolidin-1-yl)ethyl)phenyl)-3,4-dihydroisoquinolin-2(1H)-yl)propan-1-one] | – | 1.52 | –
C[C@@H]1CCCN1CCc1ccc(-c2ccc3c(c2)CCN(C(=O)c2ccccn2)C3)cc1 [Compound 18, (R)-(6-(4-(2-(2-methylpyrrolidin-1-yl)ethyl)phenyl)-3,4-dihydroisoquinolin-2(1H)-yl)(pyridin-2-yl)methanone] | 66.1 | – | Ki [3]: 2.15 nM

Source: patent US20100331312A1, “MODULATORS OF THE HISTAMINE H3 RECEPTOR USEFUL FOR THE TREATMENT OF DISORDERS RELATED THERETO” (ARENA PHARMACEUTICALS, INC., priority 2008, published 2010)
